Source: patent publication US12061143B2, “Methods for rapid determinations of antibiotic susceptibility phenotypes” (priority 2018, dated 2024)

Legend:
Format in all cases: cell-based
[1] = system: A. nosocomialis strain M2; assay: FAST flow cytometry AST with PB-sQF, bacteria recovered from 10% human blood; conditions: M2 spiked in 10% human blood, assayed within 8 hrs of simulated blood draw
[2] = system: E. coli strain Mu890; assay: as above
Protocol: (§1) Varied counts of bacteria were mixed with human blood and diluted 1:9 (v/v) with bacterial growth medium to desired bacterial concentrations (<10 CFU/mL final solution) and plated to independently confirm CFU/mL blood. Saponin was immediately added and the samples shaken for 15 minutes to achieve selective blood cell lysis. After hemolysis, bacteria were spun down and washed with PBS. The pellets were resuspended in bacterial growth medium and incubated at 37° C. for 2 hours, followed by another 3-hour incubation with antibiotics at various fractions of the minimum inhibition concentration (MIC, as independently determined by microdilution from the pure starting culture, Table 1) for sensitive strains or at the CLSI MIC resistant breakpoints^(12) for the highly resistant strains. Changes in scattered light signals largely resulting from bacterial growth inhibition were monitored by flow cytometry, and the difference in the 2-D scatter histograms with and without antibiotic treatment was quantified with PB-sQF statistics.^(1) Using PB-sQF, distance was calculated for each antibiotic concentration relative to its own no-antibiotic control and expressed as “fold distance” relative to the 99% confidence limit distance between the no-antibiotic control and the sensitive breakpoint. This allowed comparison of fold distances among all samples as each is individually paired to its own control, as is each replicate.
(§2) To simulate a blood specimen from a patient with bacteremia, the isolates were grown, diluted to the desired CFU/mL in blood (ZenBio, Research Triangle Park, NC) and saponin was added to achieve the final diluted sample. Initial bacterial cultures were prepared using Luria-Bertani (LB) broth for (E. coli) or cation-adjusted Mueller-Hinton broth (CAMHB). The fresh bacterial cultures started from ˜0.05 optical density (OD) by inoculating a 6-mL fresh growth medium with overnight culture were grown in an incubator shaker (MaxQ 4000, Thermal Fisher Scientific, Waltham, MA) at 37° C. and 225 rpm. After the culture reached mid-log phase, bacteria were collected and diluted into ˜10 CFU/mL through serial 10-fold dilutions. Bacterial densities were determined by plating onto LB plates. The final 10-fold dilution was performed by adding 500 μL of 100 CFU/mL into 4500 μL of 10% human blood in medium.
(§3) A 2.5% (w/v) of saponin solution was prepared, sonicated (Branson 2510, Emerson, St. Louis, MO) for 20 minutes and spun down with a clinical centrifuge (Centrific Model 228, Fisher Scientific, Waltham, MA) for 4 minutes. The supernatant cleared of particulates was collected. 500 μL of 2.5% saponin was then added to the 5 mL of 10% human blood sample with ˜10 CFU/mL, described above and the mixtures were shaken at 300 rpm for 15 minutes at 37° C. After the saponin treatment, the bacteria were pelleted and washed with 2 mL of phosphate buffered saline (PBS) (Life Technologies, Carlsbad, CA) using a clinical centrifuge for 2 minutes. Bacterial growth medium (2.5 mL) was then added to the tube and incubated for 2 hours at 37° C. and 225 rpm.
(§4) After the 2-hour incubation, 500-μL aliquots of the suspension were added to each of 4 wells in a 12-well microtiter plate that contained 500 μL of growth medium with or without antibiotic at 2-fold of specified concentrations. The plate was then incubated at 37° C. for 3 hours. Bacteria were collected by centrifugation (Centrifuge 5417R, Eppendorf) and resuspended in 200 μL of PBS for flow cytometry detection. To ensure each clinical isolate was tested at its MIC values of the tested antibiotics, the initial bacterial cultures at the 1000 CFU/mL dilution were also tested for each experiment (FIGS. 4A-4F, 5A-5F, 7A-7F, 8A-8F, and 9A-9F), confirming that the antibiotic concentrations indeed inhibited bacterial growth.
(§5) Cytometric data were collected by BD LSRFortessa flow cytometer (Becton Dickinson, Franklin Lake, NY) equipped with a 100 mW, 488 nm laser for the scatter signal. […]

[3] = system: E. coli strain Mu14S; assay: as above
Protocol: as §1, §2, §3, §4, §5

[4] = system: K. pneumoniae strain Mu55; assay: as above; conditions: ~8 CFU/mL after 10-fold dilution
Protocol: as §1, §2, §3, §4, §5

[5] = system: K. pneumoniae strain Mu670; assay: as above; conditions: ~9 CFU/mL after 10-fold dilution
Protocol: as §1, §2, §3, §4, §5

[6] = system: Lab-strain E. coli (ATCC); assay: FAST with low bacterial counts (500 counts by flow cytometry); conditions: each antibiotic at MIC, ¼ MIC and 1/16 MIC, bars beyond the 99% confidence line
Excerpt: FIG. 14. Bactericidal Antibiotic-induced changes for low counts of E. coli. Lab-strain E. coli (ATCC) ASTs performed with 500 counts by flow cytometry with gentamicin (Gen), penicillin G (PenG), and tetracycline (Tet) each at MIC, ¼ MIC and 1/16 MIC. This strain is seen to be sensitive to all three antibiotics, as the bars extend beyond the 99% confidence line.
While both morphology and growth inhibition occur upon exposure to antibiotics near the minimum inhibitory concentration, standard ASTs are based on growth inhibition alone. The presence of bacteria is clearly indicated by the presence of a particular scattering peak in the multidimensional histogram. This is much more sensitive and less affected by background than is shifts in a peak resulting from morphological changes upon antibiotic exposure. […] For even a few hundred counts, the presence of a bacterial population can be readily assessed with flow cytometry, but error bars and statistical distances must be properly determined relative to no-antibiotic controls. When too few counts for triplicate runs exist, control and each antibiotic exposure histograms are treated as probability distributions that are representative of the true mother distribution for each condition. Each histogram is binned (either adaptively with probability binning or using regular bins) and the distribution of data within each bin is determined. […]

Gentamicin
PB-sQF FAST susceptibility [1]: susceptible
PB-sQF fold distance-based FAST result ([2]; Mu890, beyond the 99% confidence level): effective
FAST antibiotic-induced scatter signal change ([2]; Mu890 treated at the MIC, 3-hr incubation, vs paired no-antibiotic control): effective growth inhibition
FAST antibiotic-induced scatter signal change ([3]; Mu14S treated at the MIC): exhibits growth inhibition
PB-sQF fold distance average versus the paired-control ([3]; Mu14S, 1×MIC, triplicate data): clear differences
PB-sQF FAST result [4]: appropriate
PB-sQF FAST result [5]: appropriate
PB-sQF AST susceptibility at low counts [6]: sensitive
